{"source": "patent US11980209B2", "about": "“Consumables” (GIVAUDAN SA, priority 2007, dated 2024)", "key": {"[1]": {"test_system": "perceived sweet taste (sweet sensitive panelists)", "assay": "Ranking test with R-index, isointensity of 100 ppm trilobatin in 7% sucrose solution (Example 2a)", "format": "in vivo, human", "conditions": "for R-index: critical values 35.39-64.61%", "protocol": "The sensory evaluation was conducted using a ranking method. Samples at ambient temperature were randomly presented in 15 ml blind aliquots (unidentifiable by panelists). Panels consisted of 15 sweet sensitive subjects and samples were presented in 2 replications over 1 session. After tasting each sample, the mouth was rinsed thoroughly with water at ambient temperature prior to tasting the next sample. Panelists were presented with 7%, 8%, 9%, 10% and 11% sucrose solutions in water and a sixth sample of 100 ppm trilobatin in 7% sucrose. Subjects were asked to rank the samples from low to high with respect to perceived sweet taste. R-indices were calculated for 100 ppm trilobatin in 7% sucrose versus either 7%, 8%, 9%, 10% or 11% sucrose."}, "[2]": {"test_system": "perceived sweet taste (sweet sensitive panelists)", "assay": "Direct comparison of 100 ppm trilobatin in 7% sucrose with 7.5% sucrose solution (Example 2a)", "format": "in vivo, human", "conditions": "all of 8 sweet sensitive panelists"}, "[3]": {"conditions": "100 ppm trilobatin in 7% sucrose"}}}
{"smiles": "O=C(CCc1ccc(O)cc1)c1c(O)cc(O[C@@H]2O[C@H](CO)[C@@H](O)[C@H](O)[C@H]2O)cc1O", "note": "[trilobatin, 1-[4-(beta-D-glucopyranosyloxy)-2,6-dihydroxyphenyl]-3-(4-hydroxyphenyl)-1-propanone]", "values": [{"measurement": "added sucrose sweetness intensity", "setting": "[1]; [3]", "value": 1, "unit": "° Brix"}, {"measurement": "expected isointensity to sucrose assuming a merely additive effect", "setting": "[1]; [3]", "value": 7.5, "unit": "% sucrose"}, {"measurement": "isointensity to sucrose", "setting": "[1]; [3]", "value": 8, "unit": "% sucrose"}, {"measurement": "R-index", "setting": "[1]; 100 ppm trilobatin in 7% sucrose vs 7% sucrose", "value": 79, "unit": "%"}, {"measurement": "R-index", "setting": "[1]; 100 ppm trilobatin in 7% sucrose vs 8% sucrose", "value": 38, "unit": "%"}, {"measurement": "R-index", "setting": "[1]; 100 ppm trilobatin in 7% sucrose vs 9% sucrose", "value": 12, "unit": "%"}, {"measurement": "R-index", "setting": "[1]; 100 ppm trilobatin in 7% sucrose vs 10% sucrose", "value": 1, "unit": "%"}, {"measurement": "R-index", "setting": "[1]; 100 ppm trilobatin in 7% sucrose vs 11% sucrose", "value": 0, "unit": "%"}, {"measurement": "sample sweetness (7% sucrose + 100 ppm trilobatin)", "setting": "[1]; vs 7% sucrose solution", "value": "Sweeter"}, {"measurement": "sample sweetness (7% sucrose + 100 ppm trilobatin)", "setting": "[1]; vs 8% sucrose solution", "value": "Isosweet"}, {"measurement": "sample sweetness (7% sucrose + 100 ppm trilobatin)", "setting": "[1]; vs 9% sucrose solution", "value": "Less sweet"}, {"measurement": "sample sweetness (7% sucrose + 100 ppm trilobatin)", "setting": "[1]; vs 10% sucrose solution", "value": "Less sweet"}, {"measurement": "sample sweetness (7% sucrose + 100 ppm trilobatin)", "setting": "[1]; vs 11% sucrose solution", "value": "Less sweet"}, {"measurement": "taste in direct comparison with 7.5% sucrose solution", "setting": "[2]", "value": "significantly sweeter"}]}
